Reference: publication PMC7707092, “Discovery and characterization of ORM‐11372, a novel inhibitor of the sodium‐calcium exchanger with positive inotropic activity” (British Journal of Pharmacology, 2020)
Where “and” joins values, the source holds several entries; their conditions need not be identical. Identical values can stand only once. Like-named read-outs stand apart in the source and are kept apart here.

Experiments:
[1] = target: T1, human NCX 1.1 current (I NCX) (Homo sapiens, UniProt P32418); experiment: NCX current (I NCX), whole‐cell patch‐clamp in hiPSC‐derived cardiomyocytes; type: cell-based; settings: hiPSC‐CMs, 35–37°C
T1 construct: Cor.4U cells express cardiac proteins including NCX1; host or cells: Cor.4U hiPSC-derived cardiomyocytes
Excerpt: Human‐induced pluripotent stem cell (hiPSC)‐derived CMs (Cor.4U CMs; RRID:CVCL_Y550) were thawed, seeded onto gelatine‐coated coverslips, and maintained, as described in the manufacturer's protocol.
Manual patch‐clamp recordings of membrane currents (I NCX, L‐type Ca^2+ channel current [I CaL], human cardiac sodium 1.5 current [I Na], and I hERG) were undertaken using either an Axopatch 200B or Axopatch ID amplifier (Molecular Devices, USA), using the whole‐cell configuration. […]
The measurement of current in the K^+‐free bath solution using a ramp voltage protocol at 20‐s intervals represented the first control, after which values were measured in the presence of one or more increasing concentrations of ORM‐11372 and finally upon exposure to 10‐mM NiCl2. […] Therefore, to enhance the inward current and enable a solution with a certain concentration of ORM‐11372 to be measured, the concentrations of the K^+‐free and pipette solutions were altered. […] The outward human I NCX inhibition current was measured at the following ORM‐11372 concentrations: 3 (n = 4), 10 (n = 6), 30 (n = 4), and 100 (n = 3) nM. […] The outward I NCX current in rat CMs was measured at concentrations ranging from 1 to 1,000 nM (n = 5). The inward I NCX current in rats was measured in additional experiments under changed conditions, to enhance the inward I NCX current. […]

[2] = target: 5‐HT2A receptor (Homo sapiens, UniProt P28223); experiment: Radioligand binding selectivity panel (Eurofins Cerep); settings: read-out: inhibition of specific ligand binding
Method: (§1) Radioligand binding assays were performed at Eurofins Cerep SA (Celle L'Evescault, France), for testing the inhibition capacity of ORM‐11372 (at 10 μM with two replicates), in over 75 targets. These included receptors (e.g., human A1, A2A, and A3 adenosine receptors; α1 and α2 adrenoceptors; human β1–β3 adrenergic receptors; human D1, D2S, D3, D4.4, and D5 dopamine receptors; EGF and VEGF receptors; human M1–M5 muscarinic ACh receptors; human 5‐HT1A, 5‐HT2A, 5‐HT2B, 5‐HT2C, 5‐HT4e, 5‐HT5A, 5‐HT6, and 5‐HT7 receptors), ion channels (5‐HT3, Ca^2+, ATP‐dependent potassium channel [KATP], voltage‐dependent potassium channel [KV], small‐conductance calcium‐dependent potassium channel [SKCa], Na^+, and Cl^−), and transporters (adenosine, noradrenaline, dopamine, and 5‐HT). Follow‐up functional studies (with five concentrations and two replicates) were performed for 5‐HT2A receptors and noradrenaline transporter. Agonism and antagonism at h5‐HT2A receptors was explored in recombinant HEK 293 cells and intracellular calcium changes were detected using fluorimetry. Noradrenaline uptake was measured by carrying out scintillation counting of [^3H]noradrenaline incorporated into rat hypothalamus synaptosomes.

[3] = target: 5‐HT2B receptor (Homo sapiens, UniProt P41595); experiment: as above; settings: read-out: inhibition of specific ligand binding
Method: as §1

[4] = tested on: Na^+/K^+‐ATPase; experiment: as above; settings: 10 μM
Method: as §1

[5] = target: noradrenaline transporter (Homo sapiens, UniProt P23975); experiment: as above; settings: read-out: inhibition of specific ligand binding
Method: as §1

[6] = target: peripheral benzodiazepine receptor (Rattus norvegicus, UniProt P16257); experiment: as above; settings: read-out: inhibition of specific ligand binding
Method: as §1

[7] = tested on: ryanodine receptor; experiment: as above; settings: 10 μM
Method: as §1

Sequence of 5‐HT2A receptor (P28223 whole entry): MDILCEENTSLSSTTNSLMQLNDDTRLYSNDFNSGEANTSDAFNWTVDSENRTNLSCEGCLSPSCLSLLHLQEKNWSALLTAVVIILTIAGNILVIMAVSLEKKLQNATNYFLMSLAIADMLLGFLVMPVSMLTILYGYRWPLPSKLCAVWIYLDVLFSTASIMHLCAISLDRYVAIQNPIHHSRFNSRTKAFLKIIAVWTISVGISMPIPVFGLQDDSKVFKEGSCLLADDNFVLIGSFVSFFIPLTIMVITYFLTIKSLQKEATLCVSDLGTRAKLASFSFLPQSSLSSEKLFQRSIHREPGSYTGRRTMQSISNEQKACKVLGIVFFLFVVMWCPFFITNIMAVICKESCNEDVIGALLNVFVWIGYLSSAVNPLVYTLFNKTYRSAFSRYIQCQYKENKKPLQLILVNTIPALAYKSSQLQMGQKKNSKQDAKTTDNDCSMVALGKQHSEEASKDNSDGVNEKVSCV
Sequence of noradrenaline transporter (P23975 whole entry): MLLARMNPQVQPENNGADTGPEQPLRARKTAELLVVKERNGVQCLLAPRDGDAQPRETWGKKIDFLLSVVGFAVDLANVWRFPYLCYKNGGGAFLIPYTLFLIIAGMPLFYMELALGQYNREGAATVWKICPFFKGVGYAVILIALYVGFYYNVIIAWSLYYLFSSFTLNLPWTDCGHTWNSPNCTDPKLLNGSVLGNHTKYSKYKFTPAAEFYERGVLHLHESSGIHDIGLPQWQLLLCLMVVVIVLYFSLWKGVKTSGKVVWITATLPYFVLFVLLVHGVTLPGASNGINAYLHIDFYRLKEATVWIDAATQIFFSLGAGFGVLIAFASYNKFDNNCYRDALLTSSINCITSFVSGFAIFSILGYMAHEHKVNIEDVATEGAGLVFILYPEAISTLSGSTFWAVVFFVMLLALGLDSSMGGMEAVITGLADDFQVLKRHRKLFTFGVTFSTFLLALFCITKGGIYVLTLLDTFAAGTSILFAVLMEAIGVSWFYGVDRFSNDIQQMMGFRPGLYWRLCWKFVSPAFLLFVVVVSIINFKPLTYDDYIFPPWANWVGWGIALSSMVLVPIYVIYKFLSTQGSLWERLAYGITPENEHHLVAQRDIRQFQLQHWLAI
Sequence of 5‐HT2B receptor (P41595 whole entry): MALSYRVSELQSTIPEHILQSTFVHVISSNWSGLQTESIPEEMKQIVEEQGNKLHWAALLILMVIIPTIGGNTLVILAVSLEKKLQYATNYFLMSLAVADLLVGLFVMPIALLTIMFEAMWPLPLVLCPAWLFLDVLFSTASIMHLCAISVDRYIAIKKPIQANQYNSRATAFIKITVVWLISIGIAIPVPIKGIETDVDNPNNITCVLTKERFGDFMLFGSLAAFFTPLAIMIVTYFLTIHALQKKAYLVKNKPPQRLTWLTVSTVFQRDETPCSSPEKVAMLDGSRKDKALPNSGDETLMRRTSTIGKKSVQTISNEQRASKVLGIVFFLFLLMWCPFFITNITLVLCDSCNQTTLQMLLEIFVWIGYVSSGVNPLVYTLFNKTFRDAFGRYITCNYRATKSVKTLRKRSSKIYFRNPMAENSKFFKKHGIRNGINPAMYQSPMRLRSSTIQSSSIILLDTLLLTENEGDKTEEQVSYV

Compound: Nc1cccc(-c2ccc(CNc3ccc(F)cc3)o2)c1 [ORM‐11372]
- IC50 ([1]; Ni^2+‐sensitive current at +60 mV, read-out: IC50 outward (reverse) I NCX): 4.8 nM and 5 nM
- IC50 ([1]; Ni^2+‐sensitive current at −100 mV, read-out: IC50 inward (forward) I NCX): 5.6 nM and 6 nM
- inhibition at 10 µM [2]: > 50%
- inhibition at 10 µM [3]: > 50%
- inhibition of specific ligand binding [4]: 11%
- inhibition at 10 µM [5]: > 50%
- inhibition at 10 µM [6]: > 50%
- inhibition of specific ligand binding [7]: 15%
